Measured values taken from patent publication US10640466B2, “Anthracene based compounds and their uses” (UNIVERSITY OF HERTFORDSHIRE HIGHER EDUCATION CORPORATION, priority 2015, dated 2020).

Experiments:
[1] = biological target: T1, S100P/RAGE function (Homo sapiens, UniProt P25815); conditions: in vitro studies; cited from earlier work
T1 sequence (P25815 1-95): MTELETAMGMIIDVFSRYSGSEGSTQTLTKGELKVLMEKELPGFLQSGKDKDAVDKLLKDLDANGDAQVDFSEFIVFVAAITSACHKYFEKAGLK

[2] = system: Panc-1 cells; experiment: MTS cell proliferation assay, Panc-1; format: cell-based, Human
Experimental: (§1) FIG. 3 illustrates the anti-proliferative effect of cromolyn on pancreatic cancer cells. FIG. 3A illustrates BxPC-3, and FIG. 3B illustrates Panc-1 cells. Cells were seeded overnight (10^4 cells/well) in 96 well plates in complete medium supplemented with 10% v/v FBS, 2 mM L-glutamine and 200 U Penicillin/Streptomycin solution. Compounds were serially diluted into the wells and cell proliferation assessed using MTS assay after 24, 48, and 72 hours. Results are expressed as mean±SEM with n=4. P value of <0.05 (*), <0.01 (**), <0.001 (***) and <0.0001 (****) was determined relative to control using 2-Way ANOVA. Post-test comparisons were made using Bonferroni test at 95% confidence interval;
FIG. 5 illustrates anti-proliferative effect of compounds 2 (A), 3 (B), 8 (C), 26 (D) and 7 (E) on Panc-1 cells. Panc-1 cells were seeded overnight (10^4 cells/well) in 96-well plates in complete DMEM medium supplemented with 10% v/v FBS, 1% v/v L-glutamine and 200 U Penicillin/Streptomycin solution. Compounds were serially diluted into the wells and cell proliferation analysed using MTS assay after 24, 48, and 72 hours. Results are expressed as mean±SEM with n=4. P value of <0.05 (*), <0.01 (**), <0.001 (***) and <0.0001 (****) was determined relative to control using 2-Way ANOVA. Post-test comparisons were made Bonferroni test at 95% confidence interval; and
(§2) All reagents for in vitro studies were purchased from Sigma Aldrich (Dorset, UK) unless otherwise specified. Human pancreatic cancer cells, Panc-1 (ATCC® CRL-1469™) and BxPC-3 (ATCC® CRL-1687™), were purchased from LGC Standards (LGC Ltd., Middlesex, UK). Both were cultured in their respective culture medium—Dulbecco Modified Eagle Medium (DMEM) for Panc-1 and RPMI-1640 for BxPC-3 supplemented with 10% v/v Foetal Bovine Serum (FBS), 200U Penicillin/Streptomycin solution, and 2 mM L-glutamine. Both cells were maintained at 37° C. in a 5% humidified CO2 atmosphere and passaged at least three times a week when they have reached about 70% confluency using a standardised trypsinisation protocol. Cromolyn was purchased as a sodium salt while compounds 2, 3, 7, 8 and 26 were synthesised, characterised and purified at the University of Hertfordshire. […]
Pancreatic cancer cells (1×10^5 cells/mL) in 100 μL complete cell culture medium were plated in 96-well plates (Sigma-Aldrich, Poole, UK) and incubated overnight at 37° C., 5% CO2 atmosphere. […] Plates were incubated for 90 minutes before reading the absorbance at 492 nm using a Multiskan Ascent 96/384 plate reader (Thermo Scientific, Loughborough, UK). […]
For data analysis, background noise (media only wells) was subtracted from all wells. DMSO absorbance at 1, 10, 100 and 1000 μM was subtracted from wells with sample compounds before an average of all four replicates was taken. […]

[3] = system: BxPC-3 cells; experiment: Matrigel invasion assay, BxPC-3; format: cell-based, Human; conditions: 48 h
Experimental: FIG. 2 illustrates the effect of 2 and cromolyn (100 μM) BxPC-3 invasion. FIG. 2A illustrates the results when compound 2 was added to serum-free medium in the upper compartment of Matrigel invasion chamber along with the BxPC-3 cells; while media with 10% serum was added to lower chamber. After 48 hours, cells that had invaded onto the lower surface of the membrane were stained using Giemsa stain and cells in 5 different fields were counted for invasion studies. Results are expressed as the mean±SEM. P value of <0.05 (*), <0.01 (**) and <0.001 (***) was determined relative to control using 2-Way ANOVA. Photographs of representative membranes for cells after Giemsa staining when the cells were exposed in FIGS. 2B, 2C, 2D and 2E;
(§3) Compound 2 was one of seventeen compounds from the virtual screen that were subjected to a Matrigel invasion assay (Corning®, USA) screening against BxPC-3 and Panc-1 pancreatic cancer cells.
All reagents for in vitro studies were purchased from Sigma Aldrich (Dorset, UK) unless otherwise specified. Human pancreatic cancer cells, Panc-1 (ATCC® CRL-1469™) and BxPC-3 (ATCC® CRL-1687™), were purchased from LGC Standards (LGC Ltd., Middlesex, UK). Both were cultured in their respective culture medium—Dulbecco Modified Eagle Medium (DMEM) for Panc-1 and RPMI-1640 for BxPC-3 supplemented with 10% v/v Foetal Bovine Serum (FBS), 200U Penicillin/Streptomycin solution, and 2 mM L-glutamine. […]
(§4) Matrigel invasion assay were carried out using transwell inserts with 8-μm pore size (BD-Bioscience, Oxford, UK) and Biocoat Matrigel Invasion plates (BD-Bioscience, Oxford, UK). […] The number of cells from five adjacent fields of view from each of the membranes were counted at a ×10 magnification to obtain the average number of cells per field. Data are expressed as the percent invasion through the Matrigel matrix and membrane relative to the invasion through the control membrane.

[4] = system: Panc-1 cells; experiment: Matrigel invasion assay, Panc-1; format: cell-based, Human; conditions: data not shown
Experimental: as §3
as §2, with “protocol.” for “protocol. Cromolyn was purchased as a sodium salt while compounds 2, 3, 7, 8 and 26 were synthesised, characterised and purified at the University of Hertfordshire.”
as §4

[5] = system: BxPC-3 cells; experiment: MTS cell proliferation assay, BxPC-3; format: cell-based, Human; conditions: for anti-proliferative effect on BxPC-3: 1 and 10 μM
Experimental: as §1
FIG. 4 illustrates the anti-proliferative effects of compounds 2 (A), 3 (B), 8 (C), 26 (D) and 7 (E) on BxPC-3 cells. BxPC-3 cells were seeded overnight (10^4 cells/well) in 96-well plates in complete RPMI-1640 medium supplemented with 10% v/v FBS, 2 mM L-glutamine and 200 U Penicillin/Streptomycin solution. Compounds were serially diluted into the wells and cell proliferation assessed using MTS assay after 24, 48, and 72 hours. Results are expressed as mean±SEM with n=4. P value of <0.05 (*), <0.01 (**), <0.001 (***) and <0.0001 (****) was determined relative to control using 2-Way ANOVA. Post-test comparisons were made using Bonferroni test at 95% confidence interval;
All reagents for in vitro studies were purchased from Sigma Aldrich (Dorset, UK) unless otherwise specified. Human pancreatic cancer cells, Panc-1 (ATCC® CRL-1469™) and BxPC-3 (ATCC® CRL-1687™), were purchased from LGC Standards (LGC Ltd., Middlesex, UK). Both were cultured in their respective culture medium—Dulbecco Modified Eagle Medium (DMEM) for Panc-1 and RPMI-1640 for BxPC-3 supplemented with 10% v/v Foetal Bovine Serum (FBS), 200U Penicillin/Streptomycin solution, and 2 mM L-glutamine. Both cells were maintained at 37° C. in a 5% humidified CO2 atmosphere and passaged at least three times a week when they have reached about 70% confluency using a standardised trypsinisation protocol. Cromolyn was purchased as a sodium salt while compounds 2, 3, 7, 8 and 26 were synthesised, characterised and purified at the University of Hertfordshire. To prepare stock concentrations (10 mM), cromolyn was dissolved in distilled water while compounds 2, 3, 7, 8 and 26 were dissolved in DMSO.
(§5) Pancreatic cancer cells (1×10^5 cells/mL) in 100 μL complete cell culture medium were plated in 96-well plates (Sigma-Aldrich, Poole, UK) and incubated overnight at 37° C., 5% CO2 atmosphere. Cromolyn and compounds 2, 3, 7, 8 and 26 were prepared from stocks of 10 mM in serum-free medium and serially diluted to give 1, 10, 100 and 1000 μM. Control samples for this study included cells without any drugs, cell samples with DMSO at the corresponding concentration(s) and media-only samples. Cells were incubated with test compounds for 24, 48 and 72 h. At each time point i.e. 24, 48 and 72 h, CellTiter 960 AQueous Non-Radioactive Cell Proliferation Assay (MTS) (Promega, UK) was added to each well (1:5). Plates were incubated for 90 minutes before reading the absorbance at 492 nm using a Multiskan Ascent 96/384 plate reader (Thermo Scientific, Loughborough, UK). The experiments were repeated three times.
For data analysis, background noise (media only wells) was subtracted from all wells. DMSO absorbance at 1, 10, 100 and 1000 μM was subtracted from wells with sample compounds before an average of all four replicates was taken. Data is plotted as mean from three repeats ±SEM with p value set at 0.05.

[6] = Solubility in the culture media of the proliferation assay; format: physicochemical; conditions: at 100 μM and above
Experimental: as §5

[7] = system: BxPC-3 cells; experiment: Trypan blue counting of BxPC-3 cells; format: cell-based, Human; conditions: 1 μM
[8] = biological target: T2, S100P binding to RAGE (Homo sapiens, UniProt P25815); experiment: S100P/RAGE functional assay (ELISA of S100P-RAGE binding); conditions: initial results
T2 sequence (P25815 1-95): T1 sequence (P25815 1-95)
Experimental: FIGS. 6A to 6H illustrate the effect of drugs on the binding between 1 μM S100P and 30 nM RAGE in ELISA assay wherein n=3 from one plate.
ELISA assay of S100P-RAGE binding was carried out using the method of Padilla et al. (Padilla, L., Dakhel, S., & Hernandez, J. (2014). S100 to receptor for advanced glycation end-products binding assay: Looking for inhibitors. Biochemical and Biophysical Research Communications, 446(1), 404-409. doi:10.1016/j.bbrc.2014.02.143). FIGS. 6A to 6H illustrate the effect of drugs on the binding between 1 μM S100P and 30 nM RAGE in ELISA assay wherein n=3 from one plate.

[9] = in vivo; cited from earlier work
[10] = except at the higher concentration of 1000 μM

5-methyl cromolyn
concentration inhibiting S100P/RAGE function [1]: 100 nmol/L

O=C(O)c1cccc(N2C(=O)C3C4c5ccccc5C([N+](=O)[O-])(c5ccccc54)C3C2=O)c1 (centres unmarked) [Compound 2, 3-(9-Nitro-12,14-dioxo-9,10-dihydro-9,10-[3,4]epipyrroloanthracen-13-yl)benzoic acid]
anti-proliferation effect on Panc-1 cells [2]: a similar effect was also observed | reduction in invasion of BxPC-3 cells across the Matrigel matrix ([3]; 100 μM): 17% | reduction in invasion of BxPC-3 cells across the Matrigel matrix ([3]; 500 μM): 100% | effect on invasion of Panc-1 cells [4]: No effect | inhibition of growth of BxPC-3 relative to control ([5]; all three concentrations, after 72 h, p<0.001): noticeable inhibition of growth

CCOC(=O)c1cccc(N2C(=O)C3C4c5ccccc5C([N+](=O)[O-])(c5ccccc54)C3C2=O)c1 (centres unmarked) [Compound 3, Ethyl 3-(9-nitro-12,14-dioxo-9,10-dihydro-9,10-[3,4]epipyrroloanthracen-13-yl)benzoate]
solubility issues in the culture media [6]: precipitating in the culture media | anti-proliferative effect on BxPC-3 compared to 2 ([5]; after 24 h): more pronounced anti-proliferative effect | state of BxPC-3 cells compared to the control ([5]; after 48 h): the cells appear to be recovering albeit only slightly

O=C1C2C3c4ccccc4C([N+](=O)[O-])(c4ccccc43)C2C(=O)N1c1ccccc1 (centres unmarked) [Compound 7, 9-Nitro-13-phenyl-9,10-dihydro-9,10-[3,4]epipyrroloanthracene-12,14-dione]
anti-proliferation effect on Panc-1 cells [2]: inhibition was unfortunately observed | solubility issues in the culture media [6]: precipitating in the culture media | anti-proliferative effect on BxPC-3 [5]: inhibited proliferation

O=C(O)c1ccc(N2C(=O)C3C4c5ccccc5C([N+](=O)[O-])(c5ccccc54)C3C2=O)cc1 (centres unmarked) [Compound 8, 4-(9-Nitro-12,14-dioxo-9,10-dihydro-9,10-[3,4]epipyrroloanthracen-13-yl)benzoic acid]
solubility issues in the culture media [6]: precipitating in the culture media | metabolic activity of BxPC-3 cells ([5]; 1 μM): no metabolic activity was observed | anti-proliferative effect on BxPC-3 [5]: more pronounced | viability of BxPC-3 cells by trypan blue counting [7]: still viable | inhibition of S100P binding to RAGE [8]: nanomolar inhibition

O=C(O)c1cccc(N2C(=O)C3C4c5ccccc5C(c5ccccc54)C3C2=O)c1 (centres unmarked) [Compound 26, 3-(12,14-Dioxo-9,10-dihydro-9,10-[3,4]epipyrroloanthracen-13-yl)benzoic acid]
anti-proliferation effect on Panc-1 cells [2]: inhibition was unfortunately observed | anti-proliferative effect on BxPC-3 [5]: inhibited proliferation

O=C(O)c1cc(=O)c2c(OCC(O)COc3cccc4oc(C(=O)O)cc(=O)c34)cccc2o1 [cromolyn, reference compound]
effect against the proliferation of Panc-1 cells [2, 10]: no significant effect | reduction in invasion of BxPC-3 cells across the Matrigel matrix ([3]; 100 μM): 20% | bioavailability [9]: low bioavailability | effect against the proliferation of BxPC-3 cells [5, 10]: no significant effect
